pIC50: −log10 of the molar value.
Experiments:
LNCaP cells [1] = assay: Inhibition of calcium entry into LNCaP cells; format: cell-based; conditions: Homo sapiens, NE = no effect at highest concentration of drug tested, read-out: Ca2+: IC50 for inhibition of calcium entry, LNCaP
Description: (§1) Cells were incubated in growth media containing 1 uM of the acetoxy-methyl ester of the Ca2+-sensitive fluorescent dye indo-1 (indo-1/AM; Molecular Probes, Eugene, Oreg.) for 1 h at 37° C. Cells were washed three times in buffer A [10 mM HEPES (pH 7.4), 1 mM MgCl2, 3 mM KCl, 1 mM CaCl2, 140 mM NaCl, 0.1% glucose, and 1% fetal bovine serum] and suspended to a final concentration of 10^6 cells/ml. Before stimulation, cells were warmed to 37° C. Changes in [Ca2+]i were monitored in an SLM 8100C spectrofluorimeter (SLM/Aminco; Urbana, Ill.) using previously published methods (Densmore, J. J., Haverstick, D. M., Szabo, G., and Gray, L. S. 1996. A voltage operable current is involved in activation-induced Ca^2+ entry in human lymphocytes whereas ICRAC has no apparent role. Am. J. Physiol. 271:C1494-C1503; Haverstick, D. M., Densmore, J. J., and Gray, L. S. 1998. Calmodulin regulation of Ca^2+ entry in Jurkat T cells. Cell Calcium 23:361-368).

MDA-361 cells [2] = assay: Inhibition of calcium entry into MDA-361 cells; format: cell-based; conditions: MDA361, NE = no effect at highest concentration of drug tested, read-out: Ca2+: IC50 for inhibition of calcium entry, MDA-361
Description: as §1

LNCaP cells [3] = assay: Inhibition of proliferation of LNCaP cells; format: cell-based; conditions: Homo sapiens, NE = no effect at highest concentration of drug tested, read-out: prolif: IC50 for inhibition of proliferation, LNCaP
Description: (§2) Cancer cell lines were obtained from the American Type Culture Collection (Manassas, Va.). Cell lines were maintained in RPMI1640 supplemented with glutamine and 5% fetal bovine serum containing SerXtend (Irvine Scientific) when appropriate insulin, as directed by the ATCC. The fetal bovine serum used for culture was heat-inactivated by maintaining the serum at 56° C. for 1 h. Cell lines used were a T celleukemia (Jurkat), prostate cancer (PC3, DU145, LNCAP), breast cancer (MDA468, MDA361, MCF7), pancreatic cancer (MIA PaCa2), liver cancer (Hep G2), lung cancer (A549, NCl H460), colon cancer (HT29, HCT 116), and ovarian cancer (SK-OV-3).
(§3) LNCaP cells at 2.5×10^4 cells/well or PC-3 cells at 5×10^4 cells/well, both in a final volume of […], were plated in triplicate in standard flat-bottomed 96-well tissue culture plates in the presence of drug or vehicle (DMSO). Unless otherwise indicated, cells were grown for 48 h at 37° C. in a CO2 incubator. Relative cell growth was determined with the CellTiter 96 aqueous cell proliferation assay (Promega, Madison, Wis.) as described by the manufacturer using an automated plate reader. Results were calculated in a blinded fashion and are the means of triplicate determinations.

MDA-435 cells [4] = assay: Inhibition of calcium entry into MDA-435 cells; format: cell-based; conditions: MDA435, NE = no effect at highest concentration of drug tested, read-out: Ca2+: IC50 for inhibition of calcium entry, MDA-435
Description: as §1

Jurkat cells [5] = assay: Inhibition of proliferation of Jurkat cells; format: cell-based, human; conditions: Jurkat
Description: as §2, §3

MDA-435 cells [6] = assay: Inhibition of proliferation of MDA-435 cells; format: cell-based; conditions: MDA435, NE = no effect at highest concentration of drug tested, read-out: prolif: IC50 for inhibition of proliferation, MDA-435
PC3 cells [7] = assay: Inhibition of proliferation of PC3 cells; format: cell-based, human
Description: as §2, §3

MDA-361 cells [8] = assay: Inhibition of proliferation of MDA-361 cells; format: cell-based; conditions: MDA361, NE = no effect at highest concentration of drug tested, read-out: prolif: IC50 for inhibition of proliferation, MDA-361
Description: as §2, §3

Jurkat cells [9] = assay: Inhibition of calcium entry into Jurkat cells (indo-1 fluorescence); format: cell-based, human; conditions: Homo sapiens; Jurkat; NE = no effect at highest concentration of drug tested; read-out: Ca2+: IC50 for inhibition of calcium entry, Jurkat
Description: as §1, with “8100C” left out, “([…].,” for “(Densmore, J. J., Haverstick, D. M.,”, “271:[…].,” for “271:C1494-C1503; Haverstick, D. M., Densmore, J. J.,”

MDA-231 cells [10] = assay: Inhibition of calcium entry into MDA-231 cells; format: cell-based; conditions: Homo sapiens, MDA-MB-231, NE = no effect at highest concentration of drug tested, read-out: Ca2+: IC50 for inhibition of calcium entry, MDA-231
Description: as §1

MDA-231 cells [11] = assay: Inhibition of proliferation of MDA-231 cells; format: cell-based; conditions: Homo sapiens, MDA-MB-231, NE = no effect at highest concentration of drug tested, read-out: prolif: IC50 for inhibition of proliferation, MDA-231
PC3 cells [12] = assay: Inhibition of calcium entry into PC3 cells; format: cell-based; conditions: Homo sapiens, PC-3, NE = no effect at highest concentration of drug tested, read-out: Ca2+: IC50 for inhibition of calcium entry, PC3
Description: as §1

[13] = tested on: human PC3 prostate cancer cells; conditions: xenografted PC3, Haverstick et al. 2000; cited from earlier work
[14] = target: T1, α1H isoform of T type Ca2+ channels (Homo sapiens, UniProt O95180); assay: Inhibition of Ca2+ current through transfected α1H channels; format: cell-based; conditions: FIG. 7
T1 construct: expressed in transfected cells; host or cells: HEK293 (stably transfected)
T1 sequence (O95180 whole entry, canonical isoform): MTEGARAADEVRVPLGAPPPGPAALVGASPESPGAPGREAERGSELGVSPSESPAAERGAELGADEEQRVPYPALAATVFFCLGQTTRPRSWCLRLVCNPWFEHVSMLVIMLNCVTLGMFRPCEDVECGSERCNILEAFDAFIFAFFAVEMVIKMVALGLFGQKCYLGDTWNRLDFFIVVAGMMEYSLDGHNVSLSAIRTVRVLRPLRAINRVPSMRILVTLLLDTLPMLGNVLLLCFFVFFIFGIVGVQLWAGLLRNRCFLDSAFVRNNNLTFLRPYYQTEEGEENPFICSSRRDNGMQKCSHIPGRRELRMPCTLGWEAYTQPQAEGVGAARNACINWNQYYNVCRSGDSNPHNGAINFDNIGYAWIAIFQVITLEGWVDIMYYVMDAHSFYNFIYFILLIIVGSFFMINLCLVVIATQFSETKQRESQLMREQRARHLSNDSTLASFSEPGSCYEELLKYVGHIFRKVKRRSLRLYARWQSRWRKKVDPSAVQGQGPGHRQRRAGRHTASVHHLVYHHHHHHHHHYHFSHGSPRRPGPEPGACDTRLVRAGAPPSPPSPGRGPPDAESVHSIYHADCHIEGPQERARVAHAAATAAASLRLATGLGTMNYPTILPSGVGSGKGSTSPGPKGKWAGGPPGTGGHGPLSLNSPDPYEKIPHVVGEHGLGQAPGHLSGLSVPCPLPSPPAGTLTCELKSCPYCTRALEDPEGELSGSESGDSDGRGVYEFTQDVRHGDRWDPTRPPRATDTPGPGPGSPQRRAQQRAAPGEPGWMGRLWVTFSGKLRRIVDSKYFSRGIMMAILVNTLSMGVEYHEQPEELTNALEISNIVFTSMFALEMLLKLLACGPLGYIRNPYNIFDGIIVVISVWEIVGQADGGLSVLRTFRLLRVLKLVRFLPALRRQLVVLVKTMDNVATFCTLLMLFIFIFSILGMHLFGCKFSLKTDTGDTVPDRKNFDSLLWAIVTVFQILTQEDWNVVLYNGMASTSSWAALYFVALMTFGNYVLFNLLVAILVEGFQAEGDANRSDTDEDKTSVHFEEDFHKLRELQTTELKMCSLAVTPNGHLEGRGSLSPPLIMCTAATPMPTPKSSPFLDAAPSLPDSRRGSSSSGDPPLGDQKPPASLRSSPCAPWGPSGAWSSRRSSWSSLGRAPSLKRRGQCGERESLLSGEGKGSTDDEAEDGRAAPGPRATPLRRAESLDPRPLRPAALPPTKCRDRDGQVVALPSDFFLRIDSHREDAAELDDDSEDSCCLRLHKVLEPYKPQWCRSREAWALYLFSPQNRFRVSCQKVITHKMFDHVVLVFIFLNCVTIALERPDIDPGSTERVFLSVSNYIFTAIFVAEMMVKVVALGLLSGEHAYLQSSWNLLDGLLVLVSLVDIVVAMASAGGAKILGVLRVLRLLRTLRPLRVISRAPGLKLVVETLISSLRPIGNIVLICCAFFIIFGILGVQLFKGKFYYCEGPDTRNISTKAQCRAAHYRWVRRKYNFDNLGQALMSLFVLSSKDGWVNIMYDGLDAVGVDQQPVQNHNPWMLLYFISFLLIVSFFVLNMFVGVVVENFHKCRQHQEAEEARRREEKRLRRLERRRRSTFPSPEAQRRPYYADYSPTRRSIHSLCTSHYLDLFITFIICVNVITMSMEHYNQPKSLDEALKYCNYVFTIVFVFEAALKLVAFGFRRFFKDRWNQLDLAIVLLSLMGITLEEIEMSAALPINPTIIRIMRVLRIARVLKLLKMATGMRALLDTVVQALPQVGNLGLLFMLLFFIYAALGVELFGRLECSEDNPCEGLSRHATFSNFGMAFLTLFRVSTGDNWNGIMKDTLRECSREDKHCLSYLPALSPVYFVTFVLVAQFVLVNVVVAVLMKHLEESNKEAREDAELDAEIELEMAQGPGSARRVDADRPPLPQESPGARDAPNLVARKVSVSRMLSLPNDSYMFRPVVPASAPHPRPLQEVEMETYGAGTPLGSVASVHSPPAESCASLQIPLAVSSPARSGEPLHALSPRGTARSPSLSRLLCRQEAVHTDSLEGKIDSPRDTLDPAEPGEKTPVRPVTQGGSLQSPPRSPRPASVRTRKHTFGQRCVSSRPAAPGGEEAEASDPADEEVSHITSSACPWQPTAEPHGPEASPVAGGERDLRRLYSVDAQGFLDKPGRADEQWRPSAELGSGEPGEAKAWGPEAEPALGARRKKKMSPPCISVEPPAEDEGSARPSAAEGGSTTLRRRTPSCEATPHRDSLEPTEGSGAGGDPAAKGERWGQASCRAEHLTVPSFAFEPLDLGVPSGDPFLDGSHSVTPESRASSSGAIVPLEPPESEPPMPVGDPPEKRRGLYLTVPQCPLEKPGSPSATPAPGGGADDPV

[15] = tested on: HEK293 cells stably transfected the α1H gene; assay: Proliferation of HEK293 cells stably transfected with α1H; format: cell-based; conditions: FIG. 5
[16] = Homo sapiens, NE = no effect at highest concentration of drug tested, read-out: prolif: IC50 for inhibition of proliferation, Jurkat
[17] = Homo sapiens, PC-3, PC3, NE = no effect at highest concentration of drug tested, read-out: prolif: IC50 for inhibition of proliferation, PC3
[18] = FIG. 6 panel B, read-out: IC50, proliferation of PC3 human prostate cancer cells

Compound | pIC50 (LNCaP cells [1]) | pIC50 (MDA-361 cells [2]) | pIC50 (LNCaP cells [3]) | pIC50 (MDA-435 cells [4]) | pIC50 (Jurkat cells [5]; [16]) | pIC50 (MDA-435 cells [6]) | pIC50 (PC3 cells [7]; [17]) | pIC50 (MDA-361 cells [8]) | pIC50 (Jurkat cells [9]) | pIC50 (MDA-231 cells [10]) | pIC50 (MDA-231 cells [11]) | pIC50 (PC3 cells [12]) | pIC50 (Jurkat cells [5]; 48 hrs, in the absence of ionomycin, read-out: IC50 of TH-1177 for inhibition of proliferation) | pIC50 (Jurkat cells [5]; 48 hrs, in the presence of 30 uM ionomycin, read-out: IC50 of TH-1177 for inhibition of proliferation) | lifespan of nude mice inoculated with human PC3 prostate cancer cells [13] | pIC50 [14] | pIC50 (PC3 cells [7]; [18]) | proliferation of stably transfected HEK293 cells [15]
COc1ccc(CNCCCCCC(c2ccccc2)c2ccc(Cl)cc2)cc1 (stereo not drawn) [Compound 3.1] | 5.00 | 5.00 | 5.46 | 4.60 | 5.40 | 4.92 | 4.96 | 5.10 | 5.00 | 5.00 | 5.10 | – | – | – | – | – | – | –
COc1ccc(CNCCCCOC(c2ccccc2)c2ccc(Cl)cc2)cc1 (stereo not drawn) [Compound 3.2] | 5.30 | 5.22 | 5.70 | 5.00 | 5.52 | 4.98 | 5.05 | 5.40 | 5.52 | 5.10 | 5.00 | 5.00 | – | – | – | – | – | –
COc1ccc(CCCNCCOC(c2ccccc2)c2ccc(Cl)cc2)cc1 (stereo not drawn) [Compound 3.4] | 4.82 | 5.00 | 5.26 | 4.82 | 5.43 | 5.00 | 5.00 | 5.40 | 5.52 | ~4.70 | 5.40 | ~4.82 | – | – | – | – | – | –
COc1ccc(C(O)CCCCOC(c2ccccc2)c2ccc(Cl)cc2)cc1 (stereo not drawn) [Compound 3.5] | 5.00 | 4.60 | 4.60 | 5.00 | 4.30 | 4.19 | 4.48 | 4.35 | 5.15 | 5.00 | 4.30 | 4.52 | – | – | – | – | – | –
COc1ccc(C(=O)CCCCOC(c2ccccc2)c2ccc(Cl)cc2)cc1 (stereo not drawn) [Compound 3.6] | < 4.00 | < 4.00 | ~4.00 | < 4.00 | < 4.00 | < 4.00 | < 4.00 | < 4.00 | < 4.00 | < 4.00 | < 4.00 | < 4.00 | – | – | – | – | – | –
COc1ccc(CCNCCOC(c2ccccc2)c2ccc(Cl)cc2)cc1 (stereo not drawn) [Compound 3.8] | 5.00 | 4.70 | 5.46 | 5.00 | 5.12 | 4.80 | 4.94 | 5.12 | 5.00 | 5.00 | 4.97 | 5.00 | – | – | – | – | – | –
COc1ccc(CNCCOC(c2ccccc2)c2ccc(Cl)cc2)cc1 (stereo not drawn) [Compound 3.9] | 5.52 | 5.30 | 5.80 | 5.00 | 5.42 | 4.92 | 5.40 | 5.40 | 5.52 | 5.00 | 4.93 | – | – | – | – | – | – | –
COc1ccc(CCCCNCCC(c2ccccc2)c2ccc(Cl)cc2)cc1 (stereo not drawn) [Compound 3.21] | – | – | 5.15 | – | 4.52 | 5.05 | 4.96 | – | 4.52 | 4.52 | 4.82 | 4.52 | – | – | – | – | – | –
COc1ccc(CCN2CCC[C@H]2COC(c2ccccc2)c2ccc(Cl)cc2)cc1 (stereo partly drawn) [TH-1177] | – | – | – | – | – | – | – | – | – | – | – | – | 4.75 | 5.34 | significantly extended the lifespan | 6.10 | 4.85 | inhibits proliferation
COc1ccc(CCN2CCCC2COC(c2ccccc2)c2ccc(Cl)cc2)cc1 (stereo not drawn) [TH-1211] | – | – | – | – | – | – | – | – | – | – | – | – | – | – | – | 5.15 | 4.38 | –
COCC(=O)O[C@]1(CCN(C)CCCc2nc3ccccc3[nH]2)CCc2cc(F)ccc2[C@@H]1C(C)C [mibefradil, reference compound] | – | – | – | – | – | – | – | – | – | – | – | – | – | – | – | – | – | inhibits proliferation
